Experiments:
Experiment in all cases: relative viability (nuclei count vs DMSO), 5 days (fraction); higher = more cells survive
[1] = compound: C1=CC2=NC=CN=C2C=C1/C=C/3\C(=O)NC(=O)S3 + COc1cc2c(Oc3ccc(NC(=O)C4(C(=O)Nc5ccc(F)cc5)CC4)cc3F)ccnc2cc1OCCCN1CCOCC1 [Foretinib] (partner 0.25 µM)
Method in brief: (§1)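 Values are medians from duplicate plates. Each reflects relative viability, defined as the nuclei count of treated wells over that of vehicle wells. Lung cancer cell lines in 1536-well plates were pin-tool dosed one day after seeding with one drug alone or with a fixed anchor-drug dose plus five library-drug doses (not always all listed) in √10 steps, then fixed, stained and imaged at 4× after 5 days.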

[2] = compound: C1=CC2=NC=CN=C2C=C1/C=C/3\C(=O)NC(=O)S3 + CS(=O)(=O)CCNCc1ccc(-c2ccc3ncnc(Nc4ccc(OCc5cccc(F)c5)c(Cl)c4)c3c2)o1 [Lapatinib] (partner 2 µM)
Method in brief: as §1

BGJ398 + OSI-027 = compound: CCN1CCN(c2ccc(Nc3cc(N(C)C(=O)Nc4c(Cl)c(OC)cc(OC)c4Cl)ncn3)cc2)CC1 [BGJ398] + COc1cccc2cc(-c3nc([C@H]4CC[C@H](C(=O)O)CC4)n4ncnc(N)c34)[nH]c12 [OSI-027] (partner 0.5 µM)
Method in brief: as §1

BGJ398 + AZD7762 = compound: CCN1CCN(c2ccc(Nc3cc(N(C)C(=O)Nc4c(Cl)c(OC)cc(OC)c4Cl)ncn3)cc2)CC1 [BGJ398] + NC(=O)Nc1cc(-c2cccc(F)c2)sc1C(=O)N[C@H]1CCCNC1 [AZD7762] (partner 0.2 µM)
Method in brief: as §1

Cell Line	relative viability ([1]; first compound 0.02 µM)	relative viability ([1]; first compound 0.06325 µM)	relative viability ([1]; first compound 0.2 µM)	relative viability ([1]; first compound 0.6325 µM)	relative viability ([1]; first compound 2 µM)	relative viability ([2]; first compound 0.02 µM)	relative viability ([2]; first compound 0.06325 µM)	relative viability ([2]; first compound 0.2 µM)	relative viability ([2]; first compound 0.6325 µM)	relative viability ([2]; first compound 2 µM)	relative viability (BGJ398 + OSI-027; first compound 0.01 µM)	relative viability (BGJ398 + OSI-027; first compound 0.03162 µM)	relative viability (BGJ398 + OSI-027; first compound 0.1 µM)	relative viability (BGJ398 + OSI-027; first compound 0.3162 µM)	relative viability (BGJ398 + OSI-027; first compound 1 µM)	relative viability (BGJ398 + AZD7762; first compound 0.01 µM)	relative viability (BGJ398 + AZD7762; first compound 0.03162 µM)	relative viability (BGJ398 + AZD7762; first compound 0.1 µM)	relative viability (BGJ398 + AZD7762; first compound 0.3162 µM)	relative viability (BGJ398 + AZD7762; first compound 1 µM)
HCC-78	0.54	0.469	0.538	0.534	0.4	0.701	0.729	0.91	0.554	0.168	0.369	0.348	0.346	0.349	0.366	0.609	0.536	0.557	0.61	0.608
HCC-366	0.916		0.863	0.901	0.985	0.999	0.927	1.03	0.905	1.04	0.843	0.964	0.96	0.822	0.979	0.235	0.301	0.281	0.276	0.252
IA-LM	1.15	1.28	1.15	1.2	1.25	0.69		0.698	0.771	0.65										
LCLC-103H	0.864	0.711	0.813	0.653	0.648						0.495	0.406	0.44	0.367	0.382	0.796	0.86	0.804	0.658	0.656
NCI-H441	0.925	1.09	1.06	0.925	0.668						0.621	0.626	0.758	0.564	0.62		1.07	1.25	0.961	1.56
NCI-H520	0.71	0.719	0.846	0.674	0.648	0.842	0.92	0.832	0.757	0.882	0.198	0.243	0.183	0.147	0.176					
NCI-H522											0.686	0.608	0.575	0.664	0.687	0.864	0.686	0.812	0.836	0.853
NCI-H661	1	1.05	1.07	0.957	1.08	0.46	0.495	0.464	0.45	0.39	0.618	0.723	0.766	0.752	0.742					
NCI-H1299	1.01	1.11	1.11	1.09	1.15	0.962	1.04	0.946	0.965	0.993										
NCI-H1563	0.901	0.979	0.914	0.895	0.943	0.876	0.854	0.898	0.867	0.873	0.703	0.788	0.785	0.672	0.665					
NCI-H1623	0.756	0.855	0.953	0.82	0.799						0.45	0.384	0.414	0.386	0.452					
NCI-H1648											0.245	0.292	0.246	0.26	0.235	0.873		0.759	0.55	0.387
NCI-H1650	1	0.956	1.07	1.13	1.08	0.728	0.725	0.937	0.709	0.72	0.487		0.56	0.273	0.396					
NCI-H1703	0.38	0.442	0.34	0.295	0.324	1.06	1.29	1.07	0.946	0.89						0.117	0.136	0.111	0.122	0.123
NCI-H1792						0.948	0.851	0.839	0.953	0.554	0.684	0.731	0.762	0.581	0.416	0.678	0.595	0.784	0.646	0.718
NCI-H2009	1.21	1.22	1.3	1.28	1.12	0.873	0.965	1.03	1.03	0.802	0.553	0.73	0.653	0.633	0.685					
NCI-H2023	0.714	0.832	0.765	0.781	0.51	0.872	0.735	1.01	0.764	0.466	0.364	0.462	0.46	0.41	0.395					
NCI-H2228	0.834	1.05	0.961	0.841	0.749	0.946	1.15	0.97	0.903	0.932	0.525	0.535	0.67	0.501	0.717					
NCI-H2342	0.891	0.93	1.02	0.953	0.891						0.694	0.628	0.629	0.674	0.622	0.513	0.565	0.542	0.496	0.437
SK-LU-1	0.861	0.968	0.751	0.785	0.791	0.834	0.977	0.891	1.01	0.693	0.333	0.4	0.362	0.272	0.35					
SK-MES-1	0.875	1.05	0.976	0.804	0.669	0.374	0.656	0.486	0.397	0.406	0.589	0.693	0.594	0.565	0.69					
SW 900	0.703	0.823	0.77	1.06	0.797						0.602	0.604	0.545	0.368	0.358	0.757	0.514	0.572	0.36	0.532
SW 1573	0.893	1.22	0.911	0.804	0.487	1.09	1.36	0.982	0.928	0.978	0.611	0.766	0.703	0.572	0.734					

Reference: the supplement of paper PMC10307832
